Experimental data published in patent US8362005B2, “Monocyclic amide CGRP receptor antagonists” (Merk. Sharp & Dohme Corp., priority 2008, dated 2013).
Ends that are not written are not given here.

Experiments:
[1] = target: T1, recombinant human CL receptor/RAMP1 (Homo sapiens, UniProt O60894+Q16602); assay: Recombinant receptor binding assay (125I-hCGRP, membranes of HEK 293 cells); conditions: 10 pM 125I-hCGRP
T1 construct: expressed in transfected cells; membranes
Procedure: RECOMBINANT RECEPTOR: Human CL receptor (Genbank accession number L76380) was subcloned into the expression vector pIREShyg2 (BD Biosciences Clontech) as a 5′NheI and 3′ PmeI fragment. Human RAMP 1 (Genbank accession number AJ001014) was subcloned into the expression vector pIRESpuro2 (BD Biosciences Clontech) as a 5′NheI and 3′NotI fragment. HEK 293 cells (human embryonic kidney cells; ATCC #CRL-1573) were cultured in DMEM with 4.5 g/L glucose, 1 mM sodium pyruvate and 2 mM glutamine supplemented with 10% fetal bovine serum (FBS), 100 units/mL penicillin and 100 μg/mL streptomycin, and maintained at 37° C. and 95% humidity. Cells were subcultured by treatment with 0.25% trypsin with 0.1% EDTA in HBSS. Stable cell line generation was accomplished by co-transfecting 10 μg of DNA with 30 μg Lipofectamine 2000 (Invitrogen) in 75 cm^2 flasks. CL receptor and RAMP1 expression constructs were co-transfected in equal amounts. […]
[formula] Where Y is observed CPM bound, Ymax is total bound counts, Ymin is non specific bound counts, (Ymax−Ymin) is specific bound counts, % Imax is the maximum percent inhibition, % I min is the minimum percent inhibition, radiolabel is the probe, and the Kd is the apparent dissociation constant for the radioligand for the receptor as determined by Hot saturation experiments.

[2] = system: headache induced by CGRP infusion; conditions: control group, clinical; cited from earlier work
[3] = system: acute attacks of migraine; conditions: clinical trials; cited from earlier work
facial blood flow [4] = conditions: marmoset, electrical stimulation of the trigeminal ganglion; cited from earlier work
middle meningeal artery = conditions: rats, electrical stimulation of the dura mater, prior administration; cited from earlier work
facial blood flow [5] = conditions: rat, trigeminal ganglion stimulation; cited from earlier work

T1 sequence (Q16602 23-461): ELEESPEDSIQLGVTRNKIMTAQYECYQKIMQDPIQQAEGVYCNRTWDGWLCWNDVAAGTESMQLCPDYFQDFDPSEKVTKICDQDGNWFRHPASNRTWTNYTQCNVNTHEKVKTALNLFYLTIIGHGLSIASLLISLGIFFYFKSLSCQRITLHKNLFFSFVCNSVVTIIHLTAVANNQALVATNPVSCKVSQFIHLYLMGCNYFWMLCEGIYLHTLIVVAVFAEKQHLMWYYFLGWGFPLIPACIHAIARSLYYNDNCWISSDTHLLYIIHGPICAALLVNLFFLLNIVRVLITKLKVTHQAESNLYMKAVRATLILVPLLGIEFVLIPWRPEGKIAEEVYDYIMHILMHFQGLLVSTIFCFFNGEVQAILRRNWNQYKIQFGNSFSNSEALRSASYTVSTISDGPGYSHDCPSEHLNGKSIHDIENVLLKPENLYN
T1 sequence (O60894 27-148): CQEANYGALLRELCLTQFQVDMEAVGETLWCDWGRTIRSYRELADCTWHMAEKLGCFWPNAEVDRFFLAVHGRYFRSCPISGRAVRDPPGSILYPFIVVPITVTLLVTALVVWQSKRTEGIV

For `O=C(Cn1c(-c2ccccc2)c(Cl)nc(N2CCCC2)c1=O)Nc1ccc2c(c1)CC1(C2)C(=O)Nc2ncccc21` (stereo not drawn) [Example 5, 2-(5-Chloro-2-oxo-6-phenyl-3-pyrrolidin-1-ylpyrazin-1(2H)-yl)-N-(2′,-oxo-1,1′,2′,3-tetrahydrospiro[indene-2,3′-pyrrolo[2,3-b]pyridin]-5-yl)acetamide], the Ki [1] was 130 nM.

In the case of `NCCCC[C@H](NC(=O)[C@@H](Cc1cc(Br)c(O)c(Br)c1)NC(=O)N1CCC(N2Cc3ccccc3NC2=O)CC1)C(=O)N1CCN(c2ccncc2)CC1` [BIBN4096BS], the “prevention of headache induced by CGRP infusion” value [2] is listed as “able to prevent headache induced by CGRP infusion”, the “efficacy in treating acute attacks of migraine” value [3] is listed as “effective in treating acute attacks of migraine” and the “block of the increase in facial blood flow” value (facial blood flow [4]) is listed as “could be blocked”.

For “CGRP(8-37): a peptide CGRP antagonist; fragment of CGRP that lacks seven N-terminal amino acid residues (VTHRLAGLLSRSGGVVKNNFVPTNVGSKAF; ends and bridges not checked; UniProt P06881 90-119, looked up, fragment)”, the “block of the increase in diameter of the middle meningeal artery” value (middle meningeal artery) is given as “blocked” and the “inhibition of increased facial blood flow” value (facial blood flow [5]) is given as “inhibited”.
